This is an account of results in patent publication US20250353891A1 (MEDIMMUNE LIMITED, priority 2022, published 2025).

Like-named read-outs stand apart in the source and are kept apart here. Starred links: 1 amine or outer side, 2 acyl side, 3 side chain; linkers in the order of their positions; H or OH if unused. Non-standard residues stand in square brackets, D forms with d. Residues, ends and D or L forms follow the SMILES beside them. Groups on a side chain read outwards from the residue. *: point of attachment. C18 diacid = O=C(O)CCCCCCCCCCCCCCCCC(=O)*; γGlu = O=C(O)[C@H](CCC(=O)[*:2])N[*:1]; αMeF = C[C@](N)(Cc1ccccc1)C(=O)O; Myristoyl = CCCCCCCCCCCCCC(=O)*; αMeS = C[C@](N)(CO)C(=O)O; PEG2 = NCCOCCOCCC(=O)O; AEEA = NCCOCCOCC(=O)O; Aib = CC(C)(N)C(=O)O

Assay [1] has as its target human glucagon receptor (hGCGR) (Homo sapiens, UniProt P47871). In words: cAMP production (HTRF) in CHO cells expressing hGCGR. The following applies: cAMP in CHO hGCGR cells, geometric mean, read-out: hGluc-R EC50. It counts as cell-based. Also on record: expressed in transfected cells. The gist of the method: (§1)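 Cells were resuspended in assay buffer at batch-optimized density, typically 1×10^5 cells/mL for hGLP-1R and 2×10^5 cells/mL for hGCGR. After 30 min incubation at room temperature with compound, cAMP was measured by two-step HTRF. EC50 values came from 4-parameter logistic fits of % Delta F.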
On the technique in general: Cyclic AMP is a second messenger, typically raised through Gs and lowered through Gi signalling.

Assay [2] deals with human GLP-1 receptor (hGLP-1R) (Homo sapiens, UniProt P43220). As to the kind of experiment: cAMP production (HTRF) in CHO cells expressing hGLP-1R. It counts as cell-based. The following applies: for EC50: cAMP in CHO hGLP-1R cells, geometric mean, read-out: hGLP-1R EC50; for % Relative Potency Ratio: % GLP-1R activity relative to GLP-1 / % GlucR activity relative to glucagon. The arrangement: expressed in transfected cells. The gist of the method:
as §1

[3] abbreviates: Table 6, peptides modified at position 17.
Where [4] appears, read: Table 7, peptides modified at position 20.

Chain of human glucagon receptor (hGCGR) (P47871 26-477): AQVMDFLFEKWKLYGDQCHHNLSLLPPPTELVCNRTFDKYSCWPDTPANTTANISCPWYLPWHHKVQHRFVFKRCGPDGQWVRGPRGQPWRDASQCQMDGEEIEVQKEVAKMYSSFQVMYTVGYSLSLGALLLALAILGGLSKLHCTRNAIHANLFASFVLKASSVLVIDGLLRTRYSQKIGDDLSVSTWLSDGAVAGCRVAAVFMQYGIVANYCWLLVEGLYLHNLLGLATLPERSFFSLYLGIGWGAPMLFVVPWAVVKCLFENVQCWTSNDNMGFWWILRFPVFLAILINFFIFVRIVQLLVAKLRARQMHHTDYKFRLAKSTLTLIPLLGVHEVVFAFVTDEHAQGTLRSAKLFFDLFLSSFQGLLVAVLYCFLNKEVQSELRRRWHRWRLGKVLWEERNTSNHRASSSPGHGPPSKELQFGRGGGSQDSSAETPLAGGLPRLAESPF
Chain of human GLP-1 receptor (hGLP-1R) (P43220 24-463): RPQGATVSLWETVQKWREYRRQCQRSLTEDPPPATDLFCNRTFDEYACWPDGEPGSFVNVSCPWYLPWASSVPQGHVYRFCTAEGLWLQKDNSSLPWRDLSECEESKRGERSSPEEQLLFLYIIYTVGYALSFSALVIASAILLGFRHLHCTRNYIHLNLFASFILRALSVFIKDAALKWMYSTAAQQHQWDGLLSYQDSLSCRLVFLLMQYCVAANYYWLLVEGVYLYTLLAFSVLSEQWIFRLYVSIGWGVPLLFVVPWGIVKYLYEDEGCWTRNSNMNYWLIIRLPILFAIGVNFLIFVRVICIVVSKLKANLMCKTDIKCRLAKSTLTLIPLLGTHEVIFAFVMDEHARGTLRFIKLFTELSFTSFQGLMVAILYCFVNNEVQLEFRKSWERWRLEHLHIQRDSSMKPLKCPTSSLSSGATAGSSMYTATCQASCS

Turning to `CC(C)C[C@H](NC(=O)[C@H](Cc1c[nH]c2ccccc12)NC(=O)[C@H](CCC(N)=O)NC(=O)[C@@H](NC(=O)[C@H](Cc1ccccc1)NC(=O)[C@H](CC(=O)O)NC(=O)C(C)(C)NC(=O)[C@H](C)NC(=O)[C@H](CCCNC(=N)N)NC(=O)[C@H](CCCCNC(=O)COCCOCCNC(=O)COCCOCCNC(=O)CC[C@H](NC(=O)CCCCCCCCCCCCCCCCC(=O)O)C(=O)O)NC(=O)[C@H](CO)NC(=O)[C@H](CC(=O)O)NC(=O)[C@H](CC(C)C)NC(=O)[C@](C)(Cc1ccccc1)NC(=O)[C@H](CCCCN)NC(=O)[C@H](CO)NC(=O)[C@@H](NC(=O)[C@H](CC(=O)O)NC(=O)[C@H](CO)NC(=O)[C@@H](NC(=O)[C@H](Cc1ccccc1)NC(=O)[C@@H](NC(=O)CNC(=O)[C@H](CCC(N)=O)NC(=O)C(C)(C)NC(=O)[C@@H](N)Cc1c[nH]cn1)[C@@H](C)O)[C@@H](C)O)C(C)C)C(C)C)C(=O)N[C@@H](CC(C)C)C(=O)NC(C)(C)C(=O)N[C@H](C(=O)O)[C@@H](C)O` [Peptide 29] (H-H[Aib]QGTFTSDVSK[αMeF]LDSK([AEEA-AEEA-γGlu-C18 diacid])RA[Aib]DFVQWLL[Aib]T-OH; N-terminus assumed), the EC50 (as a rule, the midpoint of the concentration-response curve) in assay [1] (setting [3]) came out at 0.629 nM; in assay [2] (setting [3]), 0.107 nM. Besides, the “% Relative Potency Ratio” value in assay [2] (Table 6) is on record as 11.7.
The matching figures for `CC(C)C[C@H](NC(=O)[C@H](Cc1c[nH]c2ccccc12)NC(=O)[C@H](CCCNC(=N)N)NC(=O)[C@@H](NC(=O)[C@H](Cc1ccccc1)NC(=O)[C@H](CC(=O)O)NC(=O)[C@H](CCC(N)=O)NC(=O)[C@H](C)NC(=O)[C@H](CCCNC(=N)N)NC(=O)[C@H](CCCCNC(=O)COCCOCCNC(=O)COCCOCCNC(=O)CC[C@H](NC(=O)CCCCCCCCCCCCCCCCC(=O)O)C(=O)O)NC(=O)[C@H](CCCCN)NC(=O)[C@H](CC(=O)O)NC(=O)[C@H](CC(C)C)NC(=O)[C@](C)(Cc1ccccc1)NC(=O)[C@H](CCCCN)NC(=O)[C@H](CO)NC(=O)[C@@H](NC(=O)[C@H](CC(=O)O)NC(=O)[C@H](CO)NC(=O)[C@@H](NC(=O)[C@H](Cc1ccccc1)NC(=O)[C@@H](NC(=O)CNC(=O)[C@H](CCC(N)=O)NC(=O)C(C)(C)NC(=O)[C@@H](N)Cc1c[nH]cn1)[C@@H](C)O)[C@@H](C)O)C(C)C)C(C)C)C(=O)N[C@@H](CCCCN)C(=O)N[C@@H](C)C(=O)NC(C)(C)C(=O)NCC(=O)O` [Peptide 425] (H-H[Aib]QGTFTSDVSK[αMeF]LDKK([AEEA-AEEA-γGlu-C18 diacid])RAQDFVRWLKA[Aib]G-OH; N-terminus assumed): 0.827 nM, 0.0115 nM and 142.3.
As for `CCCCCCCCCCCCCC(=O)N[C@@H](CCC(=O)NCCOCCOCCC(=O)NCCOCCOCCC(=O)NCCCC[C@H](NC(=O)[C@H](CO)NC(=O)[C@H](CC(=O)O)NC(=O)[C@H](CC(C)C)NC(=O)[C@@H](NC(=O)[C@H](CCCCN)NC(=O)[C@H](CO)NC(=O)[C@@H](NC(=O)[C@H](CC(=O)O)NC(=O)[C@H](CO)NC(=O)[C@@H](NC(=O)[C@](C)(Cc1ccccc1)NC(=O)[C@H](CO)NC(=O)CNC(=O)[C@H](CCC(N)=O)NC(=O)[C@](C)(CO)NC(=O)[C@@H](N)Cc1c[nH]cn1)[C@@H](C)O)C(C)C)[C@@H](C)CC)C(=O)N[C@@H](C)C(=O)N[C@@H](C)C(=O)N[C@@H](CCC(N)=O)C(=O)N[C@@H](CC(=O)O)C(=O)N[C@@](C)(Cc1ccccc1)C(=O)N[C@H](C(=O)N[C@@H](CCC(N)=O)C(=O)NC(C)(C)C(=O)N[C@H](C(=O)N[C@H](C(=O)N[C@@H](CC(N)=O)C(=O)N[C@H](C(N)=O)[C@@H](C)O)[C@@H](C)CC)[C@@H](C)CC)C(C)C)C(=O)O` [Peptide 135] (H-H[αMeS]QGS[αMeF]TSDVSKILDSK([PEG2-PEG2-γGlu-Myristoyl])AAQD[αMeF]VQ[Aib]IINT-NH2; N-terminus assumed), the EC50 in assay [1] (setting [3]) stood at 0.015 nM. Also, in assay [2] (Table 6), the “% Relative Potency Ratio” value was 72.8.
`CC(C)C[C@H](NC(=O)[C@H](Cc1c[nH]c2ccccc12)NC(=O)[C@H](CCC(N)=O)NC(=O)[C@@H](NC(=O)[C@H](Cc1ccccc1)NC(=O)[C@H](CC(=O)O)NC(=O)[C@H](CCCNC(=N)N)NC(=O)[C@H](C)NC(=O)[C@H](CCCNC(=N)N)NC(=O)[C@H](CCCCNC(=O)COCCOCCNC(=O)COCCOCCNC(=O)CC[C@H](NC(=O)CC[C@H](NC(=O)CCCCCCCCCCCCCCCCCCC(=O)O)C(=O)O)C(=O)O)NC(=O)[C@@H](NC(=O)[C@H](CC(=O)O)NC(=O)[C@H](CC(C)C)NC(=O)[C@](C)(Cc1ccccc1)NC(=O)[C@H](CCCCN)NC(=O)[C@H](CO)NC(=O)[C@@H](NC(=O)[C@H](CC(=O)O)NC(=O)[C@H](CO)NC(=O)[C@@H](NC(=O)[C@H](Cc1ccccc1)NC(=O)[C@@H](NC(=O)CNC(=O)[C@H](CCC(N)=O)NC(=O)C(C)(C)NC(=O)[C@@H](N)Cc1c[nH]cn1)[C@@H](C)O)[C@@H](C)O)C(C)C)[C@@H](C)O)C(C)C)C(=O)N[C@@H](CC(C)C)C(=O)N[C@@H](CCC(=O)O)C(=O)NC(C)(C)C(=O)NCC(N)=O` [Peptide 458]: the EC50 worked out at 0.385 nM in assay [1] (setting [3]) and 0.114 nM in assay [2] (setting [3]). The “% Relative Potency Ratio” value in assay [2] (Table 6) is 6.7.
The matching figures for `CC(C)C[C@H](NC(=O)[C@H](Cc1c[nH]c2ccccc12)NC(=O)[C@H](CCC(N)=O)NC(=O)[C@@H](NC(=O)[C@H](Cc1ccccc1)NC(=O)[C@H](CC(=O)O)NC(=O)[C@H](CCCNC(=N)N)NC(=O)[C@H](C)NC(=O)[C@H](CCCNC(=N)N)NC(=O)[C@H](CCCCNC(=O)COCCOCCNC(=O)COCCOCCNC(=O)CC[C@H](NC(=O)CCCCCCCCCCCCCCCCCCC(=O)O)C(=O)O)NC(=O)[C@@H](NC(=O)[C@H](CC(=O)O)NC(=O)[C@H](CC(C)C)NC(=O)[C@](C)(Cc1ccccc1)NC(=O)[C@H](CCCCN)NC(=O)[C@H](CO)NC(=O)[C@@H](NC(=O)[C@H](CC(=O)O)NC(=O)[C@H](CO)NC(=O)[C@@H](NC(=O)[C@H](Cc1ccccc1)NC(=O)[C@@H](NC(=O)CNC(=O)[C@H](CCC(N)=O)NC(=O)C(C)(C)NC(=O)[C@@H](N)Cc1c[nH]cn1)[C@@H](C)O)[C@@H](C)O)C(C)C)[C@@H](C)O)C(C)C)C(=O)N[C@@H](CC(C)C)C(=O)N[C@@H](CCC(=O)O)C(=O)NC(C)(C)C(=O)NCC(N)=O` [Peptide 457]: 0.203 nM, 0.109 nM and 3.7.
`CC(C)C[C@H](NC(=O)[C@H](Cc1c[nH]c2ccccc12)NC(=O)[C@H](CCC(N)=O)NC(=O)[C@@H](NC(=O)[C@H](Cc1ccccc1)NC(=O)[C@H](CC(=O)O)NC(=O)[C@H](CCCCNC(=O)COCCOCCNC(=O)COCCOCCNC(=O)CC[C@H](NC(=O)CCCCCCCCCCCCCCCCC(=O)O)C(=O)O)NC(=O)[C@H](C)NC(=O)C(C)(C)NC(=O)[C@H](CCCNC(=N)N)NC(=O)[C@H](CO)NC(=O)[C@H](CC(=O)O)NC(=O)[C@H](CC(C)C)NC(=O)[C@](C)(Cc1ccccc1)NC(=O)[C@H](CCCCN)NC(=O)[C@H](CO)NC(=O)[C@@H](NC(=O)[C@H](CC(=O)O)NC(=O)[C@H](CO)NC(=O)[C@@H](NC(=O)[C@H](Cc1ccccc1)NC(=O)[C@@H](NC(=O)CNC(=O)[C@H](CCC(N)=O)NC(=O)C(C)(C)NC(=O)[C@@H](N)Cc1c[nH]cn1)[C@@H](C)O)[C@@H](C)O)C(C)C)C(C)C)C(=O)N[C@@H](CC(C)C)C(=O)N[C@@H](CC(N)=O)C(=O)N[C@H](C(=O)O)[C@@H](C)O` [Peptide 313]: the EC50 in assay [1] (setting [4]) was determined as 1.23 nM; in assay [2] (setting [4]), 0.138 nM. The “% Relative Potency Ratio” value in assay [2] (Table 7) is on record as 17.6.
As to `CC[C@H](C)[C@H](NC(=O)C(C)(C)NC(=O)[C@H](CCC(N)=O)NC(=O)[C@@H](NC(=O)[C@](C)(Cc1ccccc1)NC(=O)[C@H](CC(=O)O)NC(=O)[C@H](CCCCNC(=O)COCCOCCNC(=O)COCCOCCNC(=O)CC[C@H](NC(=O)CCCCCCCCCCCCCCCCC(=O)O)C(=O)O)NC(=O)[C@H](C)NC(=O)[C@H](C)NC(=O)[C@H](CCCNC(=N)N)NC(=O)[C@H](CO)NC(=O)[C@H](CC(=O)O)NC(=O)[C@H](CC(C)C)NC(=O)C(C)(C)NC(=O)[C@H](CCCCN)NC(=O)[C@H](CO)NC(=O)[C@@H](NC(=O)[C@H](CC(=O)O)NC(=O)[C@H](CO)NC(=O)[C@@H](NC(=O)[C@](C)(Cc1ccccc1)NC(=O)[C@H](CO)NC(=O)CNC(=O)[C@H](Cc1c[nH]cn1)NC(=O)C(C)(C)NC(=O)[C@@H](N)Cc1c[nH]cn1)[C@@H](C)O)C(C)C)C(C)C)C(=O)N[C@@H](C)C(=O)N[C@@H](CC(N)=O)C(=O)N[C@H](C(N)=O)[C@@H](C)O` [Peptide 296] (H-H[Aib]HGS[αMeF]TSDVSK[Aib]LDSRAAK([AEEA-AEEA-γGlu-C18 diacid])D[αMeF]VQ[Aib]IANT-NH2), the values for the EC50 in assay [1] (setting [4]) and in assay [2] (setting [4]) were 3.25 nM and 0.0641 nM, respectively. Also, in assay [2] (Table 7), the “% Relative Potency Ratio” value was determined as 100.3.
